Test results from patent US20260263603A1, “PRODRUGS, PRODRUG COMPOSITIONS AND RELATED METHODS” (Praesidia Biotherapeutics Inc., priority 2023, published 2026).
Read-outs that look alike come from different tables or passages of the source.

Experiments:
in vitro [1] = conditions: 0.5 mg microsome/mL, 1 mM NADPH; for Rat liver microsomal stability (RLM) t½ min: 1 uM
Protocol: Precipitated proteins were removed by centrifugation, followed by withdrawing and diluting the supernatant for analysis. Two positive controls and negative controls (without NADPH) were used in the study. All samples were analyzed in duplicates. LC/MS/MS was performed for detection and quantification of the test compounds. Linear regression was determined using the remaining percentage of the parent drug at each incubation time and t1/2 value was calculated.

[2] = 37° C., 5 μM; for Chemical Stability, pH 4.5: pH 4.5 PBS; for Chemical Stability, pH 7.4: pH 7.4 PBS
Protocol: Chemical stability of the prodrug compounds was tested at pH 4.5 and pH 7.4 (pH adjusted in phosphate buffer saline). Both buffer solutions at two pHs were prepared in house. 2 μL of 500 μM stock solution of the prodrug was added to each vial containing 198 μL PBS at pH 7.4 or pH 4.5 and mixed evenly. The assay was performed in duplicate. The final concentration of the test compound was 5 μM. samples were incubated at 37° C. at 600 rpm. […] Samples from individual vials were used for the different time points. The samples were vortexed for 2 minutes and centrifuged at 3,220 g for 5 minutes at 4° C. […] of the supernatant was transferred to a new plate.

in vitro [3] = conditions: for half-life at 5 μM: plasma; for Human Plasma Stability t½ min: 37° C., 5 μM, t½ > 240 min considered stable
Protocol: Rat and human plasma were obtained from qualified vendors. […] The assay was performed in duplicate.

[4] = target: Glucocorticoid receptor (GR) (Homo sapiens, UniProt P04150)
Protocol: Glucocorticoid receptor (GR) binding of prodrugs was determined using TR-FRET GR competitive binding assay. Three-point (0.1, 1 and 10 μM) binding was evaluated for each prodrug.

in vitro [5] = conditions: human, Caco-2, pH 7.4
Protocol: The objective of this study was to evaluate the bidirectional permeability and absorption mechanisms of the test compounds. CaCO-2 cells were cultured, and a monolayer was developed in-house in 96 well-plates over 18 days using standard protocol. The monolayer was tested for the integrity of the cell monolayer before using.
Test compounds were added to the transwell insert (apical compartment) to determine the rate of drug transport in the apical to basolateral direction. To determine the rate of drug transport in the basolateral to apical direction, the test compound was added to the receiver plate wells (basolateral compartment). Appropriate amount of HBSS (10 mM HEPES, pH 7.4) was added in both compartments for a final volume of 200 μL. The plates were incubated at 37° C. with shaking at 150 rpm on a rotary shaker for 2 hours. At the end of the transport period, 50 μL from the apical and basolateral wells were collected and 4 volume of cold acetonitrile containing internal standards (IS: 100 nM alprazolam, 200 nM labetalol, and 2 μM ketoprofen) was added to each sample to terminate the reaction. The samples were vortexed and centrifuged at 3,800 g for 20 minutes. An aliquot of 150 μL of the supernatant was used for LC/MS/MS analysis. All samples were analyzed in duplicates. Samples were analyzed through LC/MS/MS for estimating the permeability and efflux of the compounds across Caco-2 cell monolayers.

in vitro [6] = conditions: dog, MDCK

Chain of Glucocorticoid receptor (GR) (P04150 whole entry, species assumed): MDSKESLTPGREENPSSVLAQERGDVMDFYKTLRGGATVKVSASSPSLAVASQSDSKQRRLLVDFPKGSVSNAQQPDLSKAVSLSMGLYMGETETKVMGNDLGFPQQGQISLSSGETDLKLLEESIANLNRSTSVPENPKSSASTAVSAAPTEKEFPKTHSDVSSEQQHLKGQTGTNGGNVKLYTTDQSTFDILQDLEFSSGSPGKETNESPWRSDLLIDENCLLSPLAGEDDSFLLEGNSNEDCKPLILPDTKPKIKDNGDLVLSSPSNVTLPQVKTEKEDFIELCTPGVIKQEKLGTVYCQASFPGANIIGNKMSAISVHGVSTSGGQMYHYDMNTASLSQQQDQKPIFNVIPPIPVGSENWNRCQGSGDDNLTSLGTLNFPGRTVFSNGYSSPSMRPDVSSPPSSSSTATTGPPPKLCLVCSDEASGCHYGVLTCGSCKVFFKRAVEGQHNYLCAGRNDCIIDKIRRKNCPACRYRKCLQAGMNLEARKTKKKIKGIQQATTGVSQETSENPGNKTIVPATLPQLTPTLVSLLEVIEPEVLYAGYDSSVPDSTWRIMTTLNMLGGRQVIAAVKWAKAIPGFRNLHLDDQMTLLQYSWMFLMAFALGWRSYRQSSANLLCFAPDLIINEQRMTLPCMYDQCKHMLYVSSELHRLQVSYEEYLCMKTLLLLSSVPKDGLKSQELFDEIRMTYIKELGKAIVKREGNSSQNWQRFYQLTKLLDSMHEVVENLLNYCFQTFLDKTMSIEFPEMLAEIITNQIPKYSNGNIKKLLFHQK

C[C@@H]1C[C@H]2[C@@H]3CCC4=CC(=O)C=C[C@]4(C)[C@@]3(F)[C@@H](O)C[C@]2(C)[C@@]1(O)/C(CO)=N\NC(=O)C(N)Cc1ccccc1 (single isomer, unassigned) [Compound IIIA]
Rat liver microsomal stability (RLM) t½ min (in vitro [1]): 0.55 h | Chemical Stability, pH 4.5 [2]: Yes | Chemical Stability, pH 7.4 [2]: Yes | half-life at 5 μM (in vitro [3]; human): > 4 h | half-life at 5 μM (in vitro [3]; rat): > 4 h

C[C@@H]1C[C@H]2[C@@H]3CCC4=CC(=O)C=C[C@]4(C)[C@@]3(F)[C@@H](O)C[C@]2(C)[C@@]1(O)/C(CO)=N\NC(=O)C(N)Cc1ccccc1 (single isomer, unassigned) [Compound IIIB]
Rat liver microsomal stability (RLM) t½ min (in vitro [1]): 1.35 h | GR Binding Data ([4]; @ 0.1 uM): 8% | GR Binding Data ([4]; @ 1 uM): 8% | GR Binding Data ([4]; @ 10 uM): 68% | Chemical Stability, pH 4.5 [2]: Yes | Chemical Stability, pH 7.4 [2]: Yes | Human Plasma Stability t½ min (in vitro [3]): >4 h

CC(C)C(N)C(=O)N/N=C(/CO)[C@@]1(O)[C@H](C)C[C@H]2[C@@H]3CCC4=CC(=O)C=C[C@]4(C)[C@@]3(F)[C@@H](O)C[C@@]21C (single isomer, unassigned) [Compound IVA]
Papp A→B at 2 h (in vitro [5]): 0.2 ×10⁻⁶ cm/s | Papp B→A at 2 h (in vitro [5]): 4 ×10⁻⁶ cm/s | Rat liver microsomal stability (RLM) t½ min (in vitro [1]): 0.583 h | GR Binding Data ([4]; @ 0.1 uM): 4% | GR Binding Data ([4]; @ 1 uM): 8% | GR Binding Data ([4]; @ 10 uM): 64% | Chemical Stability, pH 4.5 [2]: Yes | Chemical Stability, pH 7.4 [2]: Yes | half-life at 5 μM (in vitro [3]; human): > 4 h | half-life at 5 μM (in vitro [3]; rat): > 4 h

CC(C)C(N)C(=O)N/N=C(/CO)[C@@]1(O)[C@H](C)C[C@H]2[C@@H]3CCC4=CC(=O)C=C[C@]4(C)[C@@]3(F)[C@@H](O)C[C@@]21C (single isomer, unassigned) [Compound IVB]
Rat liver microsomal stability (RLM) t½ min (in vitro [1]): 1.8 h | GR Binding Data ([4]; @ 0.1 uM): 3% | GR Binding Data ([4]; @ 1 uM): 16% | GR Binding Data ([4]; @ 10 uM): 72% | Chemical Stability, pH 4.5 [2]: Yes | Chemical Stability, pH 7.4 [2]: Yes | Human Plasma Stability t½ min (in vitro [3]): >4 h

CC(C)C(N)C(=O)N/N=C1\C=C[C@@]2(C)C(=C1)CC[C@H]1[C@@H]3C[C@@H](C)[C@](O)(C(=O)CO)[C@@]3(C)C[C@H](O)[C@@]12F (single isomer, unassigned) [Compound VA]
half-life at 1 uM (in vitro [1]; rat, liver microsomes, Rat liver microsomal stability (RLM) t½ min): 0.733 h | Chemical Stability, pH 4.5 [2]: Yes | Chemical Stability, pH 7.4 [2]: Yes | half-life at 5 μM (in vitro [3]; rat): > 4 h

CC(C)C(N)C(=O)N/N=C1\C=C[C@@]2(C)C(=C1)CC[C@H]1[C@@H]3C[C@@H](C)[C@](O)(C(=O)CO)[C@@]3(C)C[C@H](O)[C@@]12F (single isomer, unassigned) [Compound VB]
Chemical Stability, pH 4.5 [2]: Yes | Chemical Stability, pH 7.4 [2]: Yes

CCC(=O)N/N=C(\CO)[C@@]1(O)[C@H](C)C[C@H]2[C@@H]3CCC4=CC(=O)C=C[C@]4(C)[C@@]3(F)[C@@H](O)C[C@@]21C [Compound II]
Chemical Stability, pH 4.5 [2]: Yes | Chemical Stability, pH 7.4 [2]: Yes | half-life at 5 μM (in vitro [3]; human): > 4 h

C[C@@H]1C[C@H]2[C@@H]3CCC4=C/C(=N/NC(=O)[C@H](Cc5ccccc5)N(C)C)C=C[C@]4(C)[C@@]3(F)[C@@H](O)C[C@]2(C)[C@@]1(O)C(=O)CO [Compound IXA]
half-life at 5 μM (in vitro [3]; rat): > 4 h

C[C@@H]1C[C@H]2[C@@H]3CCC4=C/C(=N\NC(=O)[C@H](Cc5ccccc5)N(C)C)C=C[C@]4(C)[C@@]3(F)[C@@H](O)C[C@]2(C)[C@@]1(O)C(=O)CO [Compound IXB]
half-life at 5 μM (in vitro [3]; rat): > 4 h

CCC(=O)N/N=C1\C=C[C@@]2(C)C(=C1)CC[C@H]1[C@@H]3C[C@@H](C)[C@](O)(C(=O)CO)[C@@]3(C)C[C@H](O)[C@@]12F [Compound I]
Chemical Stability, pH 4.5 [2]: Yes | Chemical Stability, pH 7.4 [2]: Yes | half-life at 5 μM (in vitro [3]; human): > 4 h

C[C@@H]1C[C@H]2[C@@H]3CCC4=C/C(=N/NC(=O)[C@@H](N)Cc5ccccc5)C=C[C@]4(C)[C@@]3(F)[C@@H](O)C[C@]2(C)[C@@]1(O)C(=O)CO [Compound VIIA]
Papp A→B at 2 h (in vitro [5]): 0.17 ×10⁻⁶ cm/s | Papp B→A at 2 h (in vitro [5]): 11 ×10⁻⁶ cm/s | Papp A→B (in vitro [6]): 0.15 ×10⁻⁶ cm/s | Papp B→A (in vitro [6]): 1.29 ×10⁻⁶ cm/s | Chemical Stability, pH 4.5 [2]: Yes | Chemical Stability, pH 7.4 [2]: Yes | half-life at 5 μM (in vitro [3]; rat): > 4 h

C[C@@H]1C[C@H]2[C@@H]3CCC4=C/C(=N\NC(=O)[C@@H](N)Cc5ccccc5)C=C[C@]4(C)[C@@]3(F)[C@@H](O)C[C@]2(C)[C@@]1(O)C(=O)CO [Compound VIIB]
Papp A→B at 2 h (in vitro [5]): 0.13 ×10⁻⁶ cm/s | Papp B→A at 2 h (in vitro [5]): 9 ×10⁻⁶ cm/s | Papp A→B (in vitro [6]): 0.12 ×10⁻⁶ cm/s | Papp B→A (in vitro [6]): 0.87 ×10⁻⁶ cm/s | Chemical Stability, pH 4.5 [2]: Yes | Chemical Stability, pH 7.4 [2]: Yes | half-life at 5 μM (in vitro [3]; rat): > 4 h

C[C@@H]1C[C@H]2[C@@H]3CCC4=C/C(=N\NC(=O)[C@H](N)Cc5ccccc5)C=C[C@]4(C)[C@@]3(F)[C@@H](O)C[C@]2(C)[C@@]1(O)C(=O)CO [Compound VIIIB]
GR Binding Data ([4]; @ 0.1 uM): 19% | GR Binding Data ([4]; @ 1 uM): 26% | GR Binding Data ([4]; @ 10 uM): 72% | half-life at 5 μM (in vitro [3]; rat): > 4 h

C[C@@H]1C[C@H]2[C@@H]3CCC4=C/C(=N/NC(=S)[C@@H](N)Cc5ccccc5)C=C[C@]4(C)[C@@]3(F)[C@@H](O)C[C@]2(C)[C@@]1(O)C(=O)CO [Compound X]
Papp A→B at 2 h (in vitro [5]): 0.33 ×10⁻⁶ cm/s | Papp B→A at 2 h (in vitro [5]): 4 ×10⁻⁶ cm/s | Papp A→B (in vitro [6]): < 0.17 ×10⁻⁶ cm/s | Papp B→A (in vitro [6]): 1.82 ×10⁻⁶ cm/s | half-life at 5 μM (in vitro [3]; rat): 2.08 h

C[C@@H]1C[C@H]2[C@@H]3CCC4=CC(=O)C=C[C@]4(C)[C@@]3(F)[C@@H](O)C[C@]2(C)[C@@]1(O)C(=O)CO [Dexamethasone, reference compound]
GR Binding Data ([4]; @ 1 nM): 16% | GR Binding Data ([4]; @ 10 nM): 50% | GR Binding Data ([4]; @100 nM): 93%
